Measurements taken from publication PMC12363935, “Unc-51 Like Kinase 3 (ULK3) is essential for autophagy and cell survival in multiple myeloma” (Research Square, 2025).
Several values for one entry are separate records, joined by “and”; a condition that tells them apart may be missing. Identical values can stand only once.

Experiments:
primary CD138+ MM cells = test: EMMA ex vivo platform, live cell imaging, 96 hours, collagen matrix with bone marrow stroma and patient plasma; assay type: cell-based; design: scale not given here
From the text: For clinical robustness, we tested the activity of MA9 in MM patient samples using our ex vivo mathematical myeloma advisor (EMMA) platform (Supplementary Table 1). […]
For these assays, we used a novel EMMA platform developed at Moffitt. Further details are included in the supplemental Materials. […]
400 Ex vivo drug sensitivity characterization
401 An ex vivo assay was used to quantify the chemosensitivity of primary MM cells. Fresh BM
(§1) 402 aspirate cells were enriched for CD138+ expression using Miltenyi (Bergisch Gladbach, Germany)
MM cells (CD138+) were seeded in Corning
(§2) 404 Cell BIND 384 well plates (Corning, NY) with collagen I and previously established human-
407 inactivated), penicillin/streptomycin, and patient-derived plasma (10%, freshly obtained from
409 added using a robotic plate handler so that every drug/combination was tested at 5 (fixed
410 concentration ratio, for combinations) concentrations (1:3 serial dilution) in two replicates.
411 Negative controls (supplemented growth media with and without the vehicle control dimethyl
412 sulfoxide [DMSO]) were included, as well as positive controls for each drug (cell line MM1.S at
413 highest drug concentration). Plates were placed in a motorized stage microscope (EVOS Auto FL,
414 Life Technologies, Carlsbad, CA) equipped with an incubator and maintained at 5% CO2 and 37
415 °C. […]
Digital image analysis computes the percent
418 viability of MM cells for each time point and experimental condition (drug and concentration)

[1] = system: co-cultured stromal cells; test: EMMA ex vivo platform, co-cultured stroma; assay type: cell-based; conditions: highest concentration 20 μM
Experimental: Figure 7. MA9–060 treatment compromises the survival of patient NDMM and RRMM cells ex vivo. A. Representative viability (live cell imaging) response of CD138^+ cells from NDMM patient (Pt620) cultured and tested in autologous stromal microenvironment in EMMA’s ex vivo platform, exposed to three different concentrations of MA9–060 (0.7, 2.2, 6.7 μM). […] (not shown here – 20 μM). B. Ex vivo EMMA platform assay to quantify the chemosensitivity of primary CD138^+ MM cells plated in a collagen matrix with bone marrow stroma and patient plasma. […] C. […] H. Immunoblot showing levels of indicated proteins in CD138^+ cells isolated from RRMM patients (Pt971, Pt1050). Pt1050 CD138^+ cells were assessed for ULK3-mediated autophagy related proteins (ATGs), following treatment with MA9–060 (1μM at 2 and 6 hours).
as §1
403 130-051-301 antibody-conjugated magnetic beads. MM cells (CD138+) were seeded in Corning
as §2
405 derived stroma, containing approximately 4000 MM cells and 1000 stromal cells. Each well was
406 filled with 80μL of RPMI 1640 media supplemented with fetal bovine serum (FBS, heat […]
422 images acquired for each well, we quantified non-destructively, and without the need to separate […]

Cc1cnc(Nc2ccc(C3CCN(C)CC3)c(F)c2)nc1Nc1ccc(Cl)c(NS(=O)(=O)C(C)(C)C)c1 [MA9060]
AUC (primary CD138+ MM cells; Pt648, LRMM): 42.835 | AUC (primary CD138+ MM cells; Pt653, LRMM): 41.560 | AUC (primary CD138+ MM cells; Pt655, LRMM, listed as MA9): 26.03 | AUC (primary CD138+ MM cells; Pt663, LRMM, listed as MA9): 47.02 | AUC (primary CD138+ MM cells; Pt665, LRMM, listed as MA9): 70.14 | AUC (primary CD138+ MM cells; Pt666, LRMM, listed as MA9): 49.23 | AUC (primary CD138+ MM cells; Pt669, ERMM, listed as MA9): 29.51 | AUC (primary CD138+ MM cells; Pt672, NDMM, listed as MA9): 49.16 | AUC (primary CD138+ MM cells; Pt677, NDMM): 43.301 and 45.593 | AUC (primary CD138+ MM cells; Pt680, ERMM): 42.605 | AUC (primary CD138+ MM cells; Pt680, ERMM, listed as MA9): 35.24 | AUC (primary CD138+ MM cells; Pt685, ERMM, listed as MA9): 100 | AUC (primary CD138+ MM cells; Pt689, NDMM): 97.182 | AUC (primary CD138+ MM cells; Pt691, LRMM, listed as MA9): 68.66 | AUC (primary CD138+ MM cells; Pt693, SMOL, listed as MA9): 70.97 | AUC (primary CD138+ MM cells; Pt694, NDMM, listed as MA9): 47.51 | AUC (primary CD138+ MM cells; Pt695, LRMM, listed as MA9): 70.64 | AUC (primary CD138+ MM cells; Pt697, NDMM, listed as MA9): 65.92 | AUC (primary CD138+ MM cells; Pt700, NDMM): 71.574 | AUC (primary CD138+ MM cells; Pt700, NDMM, listed as MA9): 71.39 | AUC (primary CD138+ MM cells; Pt707, LRMM, listed as MA9): 73.56 | AUC (primary CD138+ MM cells; Pt718, SMOL, listed as MA9): 76.17 | AUC (primary CD138+ MM cells; Pt737, MGUS): 42.854 | AUC (primary CD138+ MM cells; Pt738, NDMM, listed as MA9): 65.97 | AUC (primary CD138+ MM cells; Pt740, SMOL): 62.223 | AUC (primary CD138+ MM cells; Pt745, NDMM): 55.970 | AUC (primary CD138+ MM cells; Pt825, NDMM): 100 | AUC (primary CD138+ MM cells; Pt852, NDMM): 41.956 | AUC (primary CD138+ MM cells; Pt853, ERMM): 49.879 and 54.514 | AUC (primary CD138+ MM cells; Pt856, NDMM, listed as MA9): 72.33 | AUC (primary CD138+ MM cells; Pt865, LRMM, listed as MA9): 59.28 | AUC (primary CD138+ MM cells; Pt866, NDMM, listed as MA9): 37.56 | AUC (primary CD138+ MM cells; Pt875, NDMM, listed as MA9): 21.1 | AUC (primary CD138+ MM cells; Pt885, NDMM): 28.777 | AUC (primary CD138+ MM cells; Pt885, NDMM, listed as MA9): 27.78 | AUC (primary CD138+ MM cells; Pt888, LRMM, listed as MA9): 59.98 | AUC (primary CD138+ MM cells; Pt893, LRMM): 96.916 | AUC (primary CD138+ MM cells; Pt899, SMOL): 28.290 | AUC (primary CD138+ MM cells; Pt906, NDMM, listed as MA9): 43.69 | AUC (primary CD138+ MM cells; Pt909, LRMM): 46.043 | AUC (primary CD138+ MM cells; Pt912, PCL): 41.302 | AUC (primary CD138+ MM cells; Pt917, LRMM): 73.927 | AUC (primary CD138+ MM cells; Pt920, LRMM): 44.399 | AUC (primary CD138+ MM cells; Pt923, LRMM, listed as MA9): 28.34 | AUC (primary CD138+ MM cells; Pt932, LRMM): 45.003 | AUC (primary CD138+ MM cells; Pt933, LRMM, listed as MA9): 57.89 | AUC (primary CD138+ MM cells; Pt935, NDMM, listed as MA9): 25.47 | AUC (primary CD138+ MM cells; Pt936, LRMM): 83.700 | AUC (primary CD138+ MM cells; Pt937, NDMM): 48.139 and 40.693 | AUC (primary CD138+ MM cells; Pt940, LRMM): 72.923 | AUC (primary CD138+ MM cells; Pt945, LRMM): 39.091 | AUC (primary CD138+ MM cells; Pt948, LRMM, listed as MA9): 24.69 | AUC (primary CD138+ MM cells; Pt951, ERMM, listed as MA9): 62.38 | AUC (primary CD138+ MM cells; Pt956, NDMM): 67.208 and 74.021 | AUC (primary CD138+ MM cells; Pt957, LRMM): 80.043 | AUC (primary CD138+ MM cells; Pt961, NDMM): 66.118 and 49.072 | toxicity for co-cultured stromal cells [1]: no toxicity
